Laboratory results from patent publication US8163768B2, “1,4-dihydropyridine-fused heterocycles, process for preparing the same, use and compositions containing them” (Aventis Pharma S.A.., priority 2005, dated 2012).

Key:
Aurora2 (Aurora-A) = target: T1, Aurora2 (Aurora-A) (Homo sapiens, UniProt O14965); experiment: Aurora 2 (Aurora A) kinase radioactivity scintillation assay using nickel chelate Flash plates; assay type: biochemical; conditions: 10 nM Aurora-A, 500 nM NuMA substrate, 1 μM ATP with [33P] ATP, 10 mM MgCl2, 30 minutes, 37° C.
T1 construct: Aurora-A: the full length recombinant protein including an N-terminal poly-histidine tail has been expressed in E. coli; poly-histidine (N); made in house; host or cells: E. coli
T1 sequence (O14965 1-403): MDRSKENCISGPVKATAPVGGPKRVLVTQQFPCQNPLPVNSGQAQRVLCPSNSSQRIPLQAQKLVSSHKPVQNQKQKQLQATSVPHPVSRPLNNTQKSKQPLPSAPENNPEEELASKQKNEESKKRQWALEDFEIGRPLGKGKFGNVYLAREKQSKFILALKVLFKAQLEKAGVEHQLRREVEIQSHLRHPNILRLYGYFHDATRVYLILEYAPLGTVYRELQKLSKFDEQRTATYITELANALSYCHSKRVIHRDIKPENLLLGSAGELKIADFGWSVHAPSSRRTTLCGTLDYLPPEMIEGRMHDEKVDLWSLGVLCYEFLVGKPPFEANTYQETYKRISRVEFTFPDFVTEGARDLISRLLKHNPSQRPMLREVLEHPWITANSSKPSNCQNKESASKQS
Method: (§1) Aurora 1 and 2 (Respectively. Aurora B and A)
(§2) The inhibitory effect of compounds with respect to the Aurora 1 and 2 kinases is determined with a radioactivity scintillation assay using nickel chelate.
(§3) The kinase activity of Aurora is measured by the phosphorylation of NuMA-histidine substrate in the presence of radiolabelled ATP ([^33P] ATP) using 96 well Flash plates where the nickel-chelate is linked to the surface of the microplate. The amount of ^33P incorporated to the substrate NuMA is proportional to the aurora activity.
(§4) The Flash plates used are nickel-chelate 96 well plates (Perkin Elmer, model SMP107).
(§5) The products to be evaluated are incubated in a 100 μl reaction volume per well in the presence of 10 nM of Aurora-B or Aurora-A, 500 nM of NuMA substrate in the following buffer: 50 mM of NaCl, 5 mM MgCl2, (Aurora-B) or 10 mM MgCl2 (Aurora-A) and 1 mM of DTT at 37° C.
(§6) 80 μL of enzyme/substrate incubation buffer is distributed in each well, followed by 10 μL of solution of compound to be measured with various concentrations. The reaction is started by adding 1 μM of ATP (final concentration) containing 0.2 μCi of [^33P] ATP (10 μL). After 30 minutes of incubation the reaction is stopped by removal of the reaction mixture and each well is washed twice with 300 μl of buffer Tris/HCl. The radioactivity is measured in each well using a Packard Top count scintillation counter instrument.
(§7) The enzymatic activity is expressed as counts per minute obtained in 30 minutes after subtraction of the background noise (reaction medium without enzyme). The measurement is expressed as percentage of inhibition of Aurora activity versus the control. To generate IC50 values, compounds of the invention are tested at different concentration and the percentage of inhibition are plotted as function of compound concentration, IC50s are calculated using the Xlfit 4 curve fitting software.

Aurora1 (Aurora-B) = target: T2, Aurora1 (Aurora-B) (Homo sapiens, UniProt Q96GD4); experiment: Aurora 1 (Aurora B) kinase radioactivity scintillation assay using nickel chelate Flash plates; assay type: biochemical; conditions: 10 nM Aurora-B (co expressed with C3 fragment of INCEP), 500 nM NuMA substrate, 1 μM ATP with [33P] ATP, 5 mM MgCl2, 30 minutes, 37° C.
T2 construct: Aurora-B: the full length protein (His tagged in N-terminal) has been co expressed in SF9 cells; poly-histidine (N); made in house; host or cells: SF9 cells
Method: as §1, §2, §3, §4, §5, §6, §7

T2 sequence (Q96GD4 whole entry, species assumed, the tested form may be a part): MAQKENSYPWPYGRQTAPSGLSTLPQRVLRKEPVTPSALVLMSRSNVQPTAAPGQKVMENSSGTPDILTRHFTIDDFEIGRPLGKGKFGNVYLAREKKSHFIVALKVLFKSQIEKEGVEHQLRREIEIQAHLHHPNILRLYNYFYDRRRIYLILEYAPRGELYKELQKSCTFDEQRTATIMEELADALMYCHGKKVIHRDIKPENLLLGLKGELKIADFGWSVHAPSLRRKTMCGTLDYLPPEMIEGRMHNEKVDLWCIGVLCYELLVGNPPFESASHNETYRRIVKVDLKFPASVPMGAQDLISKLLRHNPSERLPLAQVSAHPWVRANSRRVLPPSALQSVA
T2 sequence (Q9NQS7 821-918 partner limits assumed, species assumed): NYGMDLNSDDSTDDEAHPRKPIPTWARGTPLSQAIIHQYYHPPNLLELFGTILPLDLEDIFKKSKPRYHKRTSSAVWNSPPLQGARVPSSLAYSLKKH

| SMILES | IC50 (Aurora2 (Aurora-A)) [nM] | IC50 (Aurora1 (Aurora-B)) [nM] |
| --- | --- | --- |
| O=C1CC(c2ccco2)CC2=C1C(c1ccc(Sc3nc4ccccc4[nH]3)o1)c1c[nH]nc1N2 (stereo not shown) [Example 34, 4-[5-(1H-Benzimidazol-2-ylsulfanyl)-furan-2-yl]-7-furan-2-yl-2,4,6,7,8,9-hexahydro-pyrazolo[3,4-b]quinolin-5-one; compound with trifluoro-acetic acid] | 23 | 5 |
| O=C1CC(c2ccc3c(c2)OCO3)CC2=C1C(c1ccc(Sc3nc4ccccc4[nH]3)o1)c1c[nH]nc1N2 (stereo not shown) [Example 35, 7-Benzo[1,3]dioxol-5-yl-4-[5-(1H-benzimidazol-2-ylsulfanyl)-furan-2-yl]-2,4,6,7,8,9-hexahydro-pyrazolo[3,4-b]quinolin-5-one; compound with trifluoro-acetic acid] | 19 | 5 |
| COc1ccc(C2CC(=O)C3=C(C2)Nc2n[nH]cc2C3c2ccc(Sc3nc4ccccc4[nH]3)o2)cc1OC (stereo not shown) [Example 36, 4-[5-(1H-Benzimidazol-2-ylsulfanyl)-furan-2-yl]-7-(3,4-dimethoxy-phenyl)-2,4,6,7,8,9-hexahydro-pyrazolo[3,4-b]quinolin-5-one; compound with trifluoro-acetic acid] | 41 | 11 |
| CCCCCC1CC(=O)C2=C(C1)Nc1n[nH]cc1C2c1ccc(Sc2nc3ccccc3[nH]2)o1 (stereo not shown) [Example 37, 4-[5-(1H-Benzimidazol-2-ylsulfanyl)-furan-2-yl]-7-pentyl-2,4,6,7,8,9-hexahydro-pyrazolo[3,4-b]quinolin-5-one; compound with trifluoro-acetic acid] | 29 | 7 |
| O=C1CC(c2ccccc2F)CC2=C1C(c1ccc(Sc3nc4ccccc4[nH]3)o1)c1c[nH]nc1N2 (stereo not shown) [Example 38, 4-[5-(1H-Benzimidazol-2-ylsulfanyl)-furan-2-yl]-7-(2-fluoro-phenyl)-2,4,6,7,8,9-hexahydro-pyrazolo[3,4-b]quinolin-5-one; compound with trifluoro-acetic acid] | 18 | 7 |
| COc1ccccc1C1CC(=O)C2=C(C1)Nc1n[nH]cc1C2c1ccc(Sc2nc3ccccc3[nH]2)o1 (stereo not shown) [Example 39, 4-[5-(1H-Benzimidazol-2-ylsulfanyl)-furan-2-yl]-7-(2-methoxy-phenyl)-2,4,6,7,8,9-hexahydro-pyrazolo[3,4-b]quinolin-5-one; compound with trifluoro-acetic acid] | 134 | 38 |
| O=C1CCCCC2=C1C(c1ccc(Sc3nc4ccccc4[nH]3)o1)c1c[nH]nc1N2 (stereo not shown) [Example 41, 4-[5-(1H-Benzoimidazol-2-ylsulfanyl)-furan-2-yl]-4,6,7,8,9,10-hexahydro-2H-1,2,10-triaza-cyclohepta[f]inden-5-one; compound with trifluoro-acetic acid] | 29 | 10 |
| O=C1OCC2=C1C(c1ccc(Sc3nc4ccccc4[nH]3)o1)c1c[nH]nc1N2 (stereo not shown) [Example 42, 4-[5-(1H-Benzoimidazol-2-ylsulfanyl)-furan-2-yl]-2,4,7,8-tetrahydro-6-oxa-1,2,8-triaza-s-indacen-5-one; compound with trifluoro-acetic acid] | 508 | 17 |
| O=C1CN(CC(O)CN2CCCCC2)CC2=C1C(c1ccc(Sc3nc4ccccc4[nH]3)o1)c1c[nH]nc1N2 (stereo not shown) [Example 45, 4-[5-(1H-Benzimidazol-2-ylsulfanyl)-furan-2-yl]-7-(2-hydroxy-3-piperidin-1-yl-propyl)-2,4,6,7,8,9-hexahydro-pyrazolo[3,4-b]-1,7-naphthyridin-5-one; compound with trifluoro-acetic acid] | 887 | 43 |
| O=C1CNCC2=C1C(c1ccc(Sc3nc4ccccc4[nH]3)o1)c1c[nH]nc1N2CC(O)CN1CCOCC1 (stereo not shown) [Example 52, 4-[5-(1H-Benzimidazol-2-ylsulfanyl)-furan-2-yl]-9-(2-hydroxy-3-morpholin-4-yl-propyl)-2,4,6,7,8,9-hexahydro-pyrazolo[3,4-b]-1,7-naphthyridin-5-one; compound with trifluoro-acetic acid] | 1940 | 145 |
| CN1C2=C(C(=O)CCC2)C(c2ccc(Sc3nc4ccccc4[nH]3)o2)c2c[nH]nc21 (stereo not shown) [Example 59, 4-[5-(1H-Benzimidazol-2-ylsulfanyl)-furan-2-yl]-9-methyl-2,4,6,7,8,9-hexahydro-pyrazolo[3,4-b]quinolin-5-one; compound with trifluoro-acetic acid] | 2220 | 136 |
| Cc1ccc2[nH]c(Sc3ccc(C4C5=C(CCCC5=O)Nc5n[nH]cc54)o3)nc2c1 (stereo not shown) [Example 70, 4-[5-(5-Methyl-1H-benzimidazol-2-ylsulfanyl)-furan-2-yl]-2,4,6,7,8,9-hexahydro-pyrazolo[3,4-b]quinolin-5-one; compound with trifluoro-acetic acid compound with trifluoro-acetic acid] | 31 | 8 |
| Cc1ccc2[nH]c(Sc3ccc(C4C5=C(CNCC5=O)Nc5n[nH]cc54)o3)nc2c1 (stereo not shown) [Example 71, 4-[5-(5-Methyl-1H-benzimidazol-2-ylsulfanyl)-furan-2-yl]-2,4,6,7,8,9-hexahydro-pyrazolo[3,4-b]-1,7-naphthyridin-5-one; compound with trifluoro-acetic acid] | 187 | 15 |
| Cc1ccc2[nH]c(Sc3ccc(C4C5=C(CC(C)(C)CC5=O)Nc5n[nH]cc54)o3)nc2c1 (stereo not shown) [Example 72, 7,7-Dimethyl-4-[5-(5-methyl-1H-benzimidazol-2-ylsulfanyl)-furan-2-yl]-2,4,6,7,8,9-hexahydro-pyrazolo[3,4-b]quinolin-5-one] | 20 | 6 |
| O=C1CCCC2=C1C(c1ccc(Sc3nc4cc(Cl)ccc4s3)o1)c1c[nH]nc1N2 (stereo not shown) [Example 73, 4-[5-(5-Chloro-benzothiazol-2-ylsulfanyl)-furan-2-yl]-2,4,6,7,8,9-hexahydro-pyrazolo[3,4-b]quinolin-5-one; compound with trifluoro-acetic acid] | 35 | 55 |
| O=C1CNCC2=C1C(c1ccc(Sc3nc4cc(Cl)ccc4s3)o1)c1c[nH]nc1N2 (stereo not shown) [Example 74, 4-[5-(5-Chloro-benzothiazol-2-ylsulfanyl)-furan-2-yl]-2,4,6,7,8,9-hexahydro-pyrazolo[3,4-b]-1,7-naphthyridin-5-one; compound with trifluoro-acetic acid] | 302 | 521 |
| CC1(C)CC(=O)C2=C(C1)Nc1n[nH]cc1C2c1ccc(Sc2nc3cc(Cl)ccc3s2)o1 (stereo not shown) [Example 75, 4-[5-(5-Chloro-benzothiazol-2-ylsulfanyl)-furan-2-yl]-7,7-dimethyl-2,4,6,7,8,9-hexahydro-pyrazolo[3,4-b]quinolin-5-one] | 73 | 183 |
| O=C1CCCC2=C1C(c1ccc(Sc3nc4cc(OC(F)F)ccc4[nH]3)o1)c1c[nH]nc1N2 (stereo not shown) [Example 76, 4-[5-(5-Difluoromethoxy-1H-benzimidazol-2-ylsulfanyl)-furan-2-yl]-2,4,6,7,8,9-hexahydro-pyrazolo[3,4-b]quinolin-5-one; compound with trifluoro-acetic acid] | 46 | 9 |
| COc1ccc2nc(Oc3ccc(C4C5=C(CCCC5=O)Nc5n[nH]cc54)o3)[nH]c2c1 (stereo not shown) [Example 77, 4-[5-(6-Methoxy-1H-benzimidazol-2-yloxy)-furan-2-yl]-2,4,6,7,8,9-hexahydro-pyrazolo[3,4-b]quinolin-5-one; compound with trifluoro-acetic acid] | 2480 | 473 |
| Cc1c[nH]c(Sc2ccc(C3C4=C(CCCC4=O)Nc4n[nH]cc43)o2)n1 (stereo not shown) [Example 78, 4-[5-(4-methyl-1H-imidazol-2-ylsulfanyl)-furan-2-yl]-2,4,6,7,8,9-hexahydro-pyrazolo[3,4-b]quinolin-5-one; compound with trifluoro-acetic acid] | 331 | 121 |
